The record followed here is article PMC3948918 (PLoS ONE, 2014).

Read-outs that look alike come from different tables or passages of the source. Numbered stars: 1 amine (or outer) side, 2 acyl side, 3 side chain; on linkers, the order of the positions; unused ones are H or OH. Bridge positions count the residues as written; N and C are the ends. Square brackets hold non-standard residues; d marks the D form. Peptide text beside a SMILES is read from it. Adda = CO[C@@H](Cc1ccccc1)[C@@H](C)/C=C(C)/C=C/[C@H](N[*:1])[C@H](C)C(=O)[*:2]; dAsp(3S-Me) = C[C@H](C(=O)[*:3])[C@@H](N[*:1])C(=O)[*:2]; d(γGlu) = O=C(O)[C@@H](CCC(=O)[*:2])N[*:1]; NMeDha = C=C(NC)C(=O)O

In data set [1] the test system is HeLa Control cells. The following applies: read-out: IC50 HeLa Control.
Data set [2] deals with OATP1B1-expressing HeLa cells. The following applies: read-out: IC50 HeLa B1.
Data set [3] has as its system OATP1B3-expressing HeLa cells. The note with it: for IC50: read-out: IC50 HeLa B3.
Data set [4] concerns RKO control cells.
The subject of data set [5] is OATP1B1-expressing RKO cells. The note with it: read-out: IC50 RKO B1.
Data set [6] has as its system OATP1B3-expressing RKO cells.
The subject of data set [7] is OATP1B1- and OATP1B3-expressing HeLa or RKO cell lines.
Data set [8] concerns OATP1B1. The experiment in a line: in vitro. The note with it: human.

One may read the IC50 as the concentration at which inhibition is half-maximal. Regarding `C=C1C(=O)N[C@H](C)C(=O)N[C@@H](CC(C)C)C(=O)N[C@@H](C(=O)O)[C@H](C)C(=O)N[C@@H](Cc2c[nH]c3ccccc23)C(=O)N[C@@H](/C=C/C(C)=C/[C@H](C)[C@H](Cc2ccccc2)OC)[C@H](C)C(=O)N[C@@H](C(=O)O)CCC(=O)N1C` [compound 8, LW, reference compound] (W[Adda][d(γGlu)][NMeDha][dA]L[dAsp(3S-Me)]-OH; lactam N-7), the IC50 in data set [1] is over 1000 nM; in data set [2], 0.22 nM; in data set [3], 0.16 nM; in data set [4] (read-out: IC50 RKO control) it was over 1000 nM; in data set [5], 0.4 nM; in data set [6] (read-out: IC50 RKO B3), 0.29 nM. For the same compound, in data set [3], the “Ratio IC50 B1/B3 HeLa” value came to 1.4. The “Ratio IC50 B1/B3 RKO” value in data set [6] came out at 1.4. Besides, the “IC50 values (potency grouping)” value in data set [7] is given as “sub-nanomolar”. Also, the “transporter selectivity (in words)” value in data set [7] is reported as “weakly OATP1B3 selective”.

Regarding `C/C=C1/NC(=O)CC[C@H](C(=O)O)NC(=O)[C@@H](C)[C@H](/C=C/C(C)=C/[C@H](C)[C@H](Cc2ccccc2)OC)NC(=O)[C@H](Cc2c[nH]c3ccccc23)NC(=O)C[C@H](C(=O)O)NC(=O)[C@H](CCc2ccc(O)cc2)NC(=O)[C@@H](C)NC1=O` [compound 20, [D-Asp^3,(E)-Dhb^7]MC-HtyW], the IC50 in data set [4] (3 h) was over 100 nM; in data set [6] (human), 2.57 nM; in data set [8], 4.9 nM. Moreover, the “Ratio IC50 B1/B3 RKO” value in data set [6] is given as 1.9.

Take `C=C1C(=O)N[C@H](C)C(=O)N[C@@H](CC(C)C)C(=O)N[C@@H](C(=O)O)[C@H](C)C(=O)N[C@@H](Cc2ccc(O)cc2)C(=O)N[C@@H](/C=C/C(C)=C/[C@H](C)[C@H](Cc2ccccc2)OC)[C@H](C)C(=O)N[C@@H](C(=O)O)CCC(=O)N1C` [compound 5, MC-LY] (Y[Adda][d(γGlu)][NMeDha][dA]L[dAsp(3S-Me)]-OH; lactam N-7): the concentration for half-maximal inhibition (IC50) in data set [1] is over 10 nM. In addition, the IC50 in data set [2] was 0.16 nM. Besides, in data set [3], the “Ratio IC50 B1/B3 HeLa” value is reported as 0.8 and the IC50 was 0.21 nM. In data set [7], the “IC50 values (potency grouping)” value is given as “sub-nanomolar” and the “transporter selectivity (in words)” value is reported as “least OATP1B3 selective”.

On to `C=C1C(=O)N[C@H](C)C(=O)N[C@@H](CC(C)CC)C(=O)N[C@@H](C(=O)O)CC(=O)N[C@@H](CCCNC(=N)N)C(=O)N[C@@H](/C=C/C(C)=C/[C@H](C)[C@H](Cc2ccccc2)OC)[C@H](C)C(=O)N[C@@H](C(=O)O)CCC(=O)N1C` (stereo partly drawn) [compound 3, [D-Asp^3]MC-HilR], for which the IC50 in data set [4] (3 h) was over 1000 nM; in data set [6] (human), 142 nM; in data set [8], 57 nM. The “Ratio IC50 B1/B3 RKO” value in data set [6] was 0.4. Also, the “transporter selectivity (in words)” value in data set [7] is on record as “least OATP1B3 selective”.

On to `C=C1C(=O)N[C@H](C)C(=O)N[C@@H](Cc2ccc(O)cc2)C(=O)N[C@@H](C(=O)O)[C@H](C)C(=O)N[C@@H](CCCNC(=N)N)C(=O)N[C@@H](/C=C/C(C)=C/[C@H](C)[C@H](Cc2ccccc2)OC)[C@H](C)C(=O)N[C@@H](C(=O)OC)CCC(=O)N1C` [compound 22, [D-Glu(OMe)^6]MC-YR], for which the IC50 in data set [4] (read-out: IC50 RKO control) was over 1000 nM; in data set [5] it was 595 nM; in data set [6] (read-out: IC50 RKO B3), 227 nM; in data set [7] (read-out: IC50 values (potency grouping)) it was over 100 nM. Further, the “Ratio IC50 B1/B3 RKO” value in data set [6] came out at 2.6.

Turning to `C=C1C(=O)N[C@H](C)C(=O)N[C@@H](CCCNC(=N)N)C(=O)N[C@@H](C(=O)O)[C@H](C)C(=O)N[C@@H](Cc2ccccc2)C(=O)N[C@@H](/C=C/C(C)=C/[C@H](C)[C@H](Cc2ccccc2)OC)[C@H](C)C(=O)N[C@@H](C(=O)O)CCC(=O)N1C` [compound 12, MC-RF] (F[Adda][d(γGlu)][NMeDha][dA]R[dAsp(3S-Me)]-OH; lactam N-7), the IC50 in data set [4] (read-out: IC50 RKO control) was over 1000 nM; in data set [5], 58.3 nM; in data set [6] (read-out: IC50 RKO B3) it was 3.38 nM. Also, in data set [6], the “Ratio IC50 B1/B3 RKO” value is 17.2. In data set [7], the “transporter selectivity (in words)” value is “most OATP1B3 selective”.

For the compound `C/C=C1/NC(=O)CC[C@H](C(=O)O)NC(=O)[C@@H](C)[C@H](/C=C/C(C)=C/[C@H](C)[C@H](Cc2ccccc2)OC)NC(=O)[C@H](Cc2ccc(O)cc2)NC(=O)C[C@H](C(=O)O)NC(=O)[C@H](CC(C)C)NC(=O)[C@@H](C)NC1=O` [compound 6, [D-Asp^3,(E)-Dhb^7]MC-LY], the IC50 in data set [1] is over 10 nM; in data set [2] it was 0.47 nM; in data set [3] it was 0.18 nM. For the same compound, the “Ratio IC50 B1/B3 HeLa” value in data set [3] is 2.6. Further, the “IC50 values (potency grouping)” value in data set [7] is on record as “sub-nanomolar”. Further, in data set [7], the “transporter selectivity (in words)” value is listed as “weakly OATP1B3 selective”.

In the case of `C=C1C(=O)N[C@H](C)C(=O)N[C@@H](Cc2ccc(O)cc2)C(=O)N[C@@H](C(=O)O)CC(=O)N[C@@H](CCCNC(=N)N)C(=O)N[C@@H](/C=C/C(C)=C/[C@H](C)[C@H](Cc2ccccc2)OC)[C@H](C)C(=O)N[C@@H](C(=O)O)CCC(=O)N1C` [compound 14, [D-Asp^3]MC-YR], the IC50 in data set [4] (read-out: IC50 RKO control) was over 1000 nM; in data set [5], 149 nM; in data set [6] (read-out: IC50 RKO B3), 48 nM. Moreover, the “Ratio IC50 B1/B3 RKO” value in data set [6] was 3.1.

In the case of `CC=C1C(=O)N[C@@H](C(=O)O)[C@H](C)C(=O)N[C@@H](CCCNC(=N)N)C(=O)N[C@@H](/C=C/C(C)=C/[C@H](C)[C@H](Cc2ccccc2)OC)[C@H](C)C(=O)N[C@@H](C(=O)O)CCC(=O)N1C` [compound 23, Nodularin], the IC50 in data set [1] was over 100 nM; in data set [2], 8.4 nM; in data set [3], over 100 nM; in data set [4] (read-out: IC50 RKO control), over 100 nM; in data set [5], 10 nM; in data set [6] (read-out: IC50 RKO B3), over 100 nM. Moreover, in data set [3], the “Ratio IC50 B1/B3 HeLa” value is on record as under 0.1. The “Ratio IC50 B1/B3 RKO” value in data set [6] is on record as under 0.1.

Consider `C=C1C(=O)N[C@H](C)C(=O)N[C@@H](CC(C)C)C(=O)N[C@@H](C(=O)O)[C@H](C)C(=O)N[C@@H](CCCNC(=N)N)C(=O)N[C@@H](/C=C/C(C)=C/[C@H](C)[C@H](Cc2ccccc2)OC)[C@H](C)C(=O)N[C@@H](C(=O)O)CCC(=O)N1C` [compound 1, MC-LR, reference compound] (R[Adda][d(γGlu)][NMeDha][dA]L[dAsp(3S-Me)]-OH; lactam N-7), for which the IC50 was over 1000 nM in data set [1]; 1 nM in data set [2]; 5.1 nM in data set [3]; over 1000 nM in data set [4] (read-out: IC50 RKO control); 8.2 nM in data set [5]; 26.9 nM in data set [6] (read-out: IC50 RKO B3). In addition, in data set [3], the “Ratio IC50 B1/B3 HeLa” value stood at 0.2. Moreover, the “Ratio IC50 B1/B3 RKO” value in data set [6] came out at 0.3. Further, in data set [7], the “transporter selectivity (in words)” value was “least OATP1B3 selective”.

Consider `C/C=C1/NC(=O)CC[C@H](C(=O)O)NC(=O)[C@@H](C)[C@H](/C=C/C(C)=C/[C@H](C)[C@H](Cc2ccccc2)OC)NC(=O)[C@H](CCCNC(=N)N)NC(=O)C[C@H](C(=O)O)NC(=O)[C@H](Cc2ccc(O)cc2)NC(=O)[C@@H](C)NC1=O` [compound 15, [D-Asp^3,(E)-Dhb^7]MC-YR], for which the results for the half-inhibitory concentration (IC50) in data set [4] (read-out: IC50 RKO control), in data set [5] and in data set [6] (read-out: IC50 RKO B3) were over 1000 nM, 108 nM and 27.1 nM, respectively. Further, the “Ratio IC50 B1/B3 RKO” value in data set [6] amounted to 4.0. For the same compound, the “transporter selectivity (in words)” value in data set [7] is on record as “most OATP1B3 selective”.

`C/C=C1/NC(=O)CC[C@H](C(=O)O)NC(=O)[C@@H](C)[C@H](/C=C/C(C)=C/[C@H](C)[C@H](Cc2ccccc2)OC)NC(=O)[C@H](Cc2c[nH]c3ccccc23)NC(=O)C[C@H](C(=O)O)NC(=O)[C@H](CC(C)C)NC(=O)[C@@H](C)NC1=O` [compound 9, [D-Asp^3,(E)-Dhb^7]-MC-LW]: the IC50 in data set [4] (read-out: IC50 RKO control) was over 1000 nM; in data set [5], 11 nM; in data set [6] (read-out: IC50 RKO B3), 7.7 nM. The “Ratio IC50 B1/B3 RKO” value in data set [6] is recorded as 1.4. For the same compound, in data set [7], the “transporter selectivity (in words)” value is “weakly OATP1B3 selective”.

As for `C=C1C(=O)N[C@H](C)C(=O)N[C@@H](CCCNC(=N)N)C(=O)N[C@@H](C(=O)O)[C@H](C)C(=O)N[C@@H](Cc2ccc(O)cc2)C(=O)N[C@@H](/C=C/C(C)=C/[C@H](C)[C@H](Cc2ccccc2)OC)[C@H](C)C(=O)N[C@@H](C(=O)O)CCC(=O)N1C` [compound 16, MC-RY] (Y[Adda][d(γGlu)][NMeDha][dA]R[dAsp(3S-Me)]-OH; lactam N-7), the IC50 was over 1000 nM in data set [1], 77 nM in data set [2] and 2.5 nM in data set [3]. For the same compound, the “Ratio IC50 B1/B3 HeLa” value in data set [3] is recorded as 30.8. Besides, in data set [7], the “transporter selectivity (in words)” value is on record as “most OATP1B3 selective”.

Take `C=C1C(=O)N[C@H](C)C(=O)N[C@@H](CC(C)C)C(=O)N[C@@H](C(=O)O)CC(=O)N[C@@H](CCCNC(=N)N)C(=O)N[C@@H](/C=C/C(C)=C/[C@H](C)[C@H](Cc2ccccc2)OC)[C@H](C)C(=O)N[C@@H](C(=O)O)CCC(=O)N1C` [compound 2, [D-Asp^3]MC-LR]: the IC50 in data set [4] (read-out: IC50 RKO control) is over 1000 nM; in data set [5] it was 7.3 nM; in data set [6] (read-out: IC50 RKO B3), 31.3 nM. Moreover, the “Ratio IC50 B1/B3 RKO” value in data set [6] is 0.2. Further, the “transporter selectivity (in words)” value in data set [7] is listed as “least OATP1B3 selective”.

Consider `C=C1C(=O)N[C@H](C)C(=O)N[C@@H](Cc2ccc(O)cc2)C(=O)N[C@@H](C(=O)O)[C@H](C)C(=O)N[C@@H](Cc2ccc(O)cc2)C(=O)N[C@@H](/C=C/C(C)=C/[C@H](C)[C@H](Cc2ccccc2)OC)[C@H](C)C(=O)N[C@@H](C(=O)O)CCC(=O)N1C` [compound 17, MC-YY] (Y[Adda][d(γGlu)][NMeDha][dA]Y[dAsp(3S-Me)]-OH; lactam N-7), for which the IC50 was 259 nM in data set [1], 1.5 nM in data set [2] and 0.8 nM in data set [3]. The “Ratio IC50 B1/B3 HeLa” value in data set [3] is 1.9. The “IC50 values (potency grouping)” value in data set [7] is reported as “sub-nanomolar”.
